Consider 28 substances from US20040009599A1, “Antisense modulation of cellular inhibitor of apoptosis-1 expression” (priority 1998, published 2004).

Strand notation (5' to 3'): a small letter for the sugar, then the base; units joined by * are phosphorothioate-linked, units joined directly phosphodiester-linked; [ ] holds rarer units or linkages, { } end groups; capitals alone tell only the bases. d = 2'-deoxy (DNA)

The data set deals with human Cellular Inhibitor of Apoptosis-1 RNA. Put plainly: Inhibition of Cellular Inhibitor of Apoptosis-1 mRNA levels by quantitative real-time PCR after oligonucleotide treatment of cells. It is filed as cell-based. The note with it: for % Inhibition of Cellular Inhibitor of Apoptosis-1 mRNA levels: phosphorothioate oligodeoxynucleotides, oligonucleotide at final concentration of 150 nM with LIPOFECTIN, real-time PCR, averages from three experiments; for inhibition of Cellular Inhibitor of Apoptosis-1 expression: summary of Table 1, real-time PCR of mRNA levels. On the procedure:
Cells were harvested 16 hours after oligonucleotide treatment.
Poly(A)+ mRNA was isolated according to Miura et al., Clin. Chem., 1996, 42, 1758-1764. Other methods for poly(A)+ mRNA isolation are taught in, for example, Ausubel, F. M. et al., Current Protocols in Molecular Biology, Volume 1, pp. 4.5.1-4.5.3, John Wiley & Sons, Inc., 1993. […] 60 μL lysis buffer (10 mM Tris-HCl, pH 7.6, 1 mM EDTA, 0.5 M NaCl, 0.5% NP-40, 20 mM vanadyl-ribonucleoside complex) was added to each well, the plate was gently agitated and then incubated at room temperature for five minutes. 55 μL of lysate was transferred to Oligo d(T) coated 96-well plates (AGCT Inc., Irvine Calif.). Plates were incubated for 60 minutes at room temperature, washed 3 times with 200 μL of wash buffer (10 mM Tris-HCl pH 7.6, 1 mM EDTA, 0.3 M NaCl). After the final wash, the plate was blotted on paper towels to remove excess wash buffer and then air-dried for 5 minutes. 60 μL of elution buffer (5 mM Tris-HCl pH 7.6), preheated to 70° C. was added to each well, the plate was incubated on a 90° C. hot plate for 5 minutes, and the eluate was then transferred to a fresh 96-well plate.
Cellular Inhibitor of Apoptosis-1 probes and primers were designed to hybridize to the human Cellular Inhibitor of Apoptosis-1 sequence, using published sequence information (GenBank accession number U37547, incorporated herein as SEQ ID NO:1).
For Cellular Inhibitor of Apoptosis-1 the PCR primers were: […]
Target sites are indicated by nucleotide numbers, as given in the sequence source reference (Genbank accession no. U37547), to which the oligonucleotide binds. All compounds in Table 1 are oligodeoxynucleotides with phosphorothioate backbones (internucleoside linkages) throughout. […] Data are averages from three experiments. If present, “N.D.” indicates “no data”.
On the technique in general: Real-time PCR tracks product formation cycle by cycle.

On to “ISIS 23346: phosphorothioate oligodeoxynucleotide ggtaacctaagtgctatt, 5′ UTR target site 915 (antisense dG*dG*dT*dA*dA*dC*dC*dT*dA*dA*dG*dT*dG*dC*dT*dA*dT*dT)”, for which the “% Inhibition of Cellular Inhibitor of Apoptosis-1 mRNA levels” value (“% Inhibition” below) is listed as 0%.
Turning to “ISIS 23338: phosphorothioate oligodeoxynucleotide ttggcttaaagttcaaaa, 5′ UTR target site 435 (antisense dT*dT*dG*dG*dC*dT*dT*dA*dA*dA*dG*dT*dT*dC*dA*dA*dA*dA)”, the “% Inhibition” value is 0%.
On the same count and under the same terms, with “ISIS 23335: phosphorothioate oligodeoxynucleotide ttaaggactattcagcta, 5′ UTR target site 216 (antisense dT*dT*dA*dA*dG*dG*dA*dC*dT*dA*dT*dT*dC*dA*dG*dC*dT*dA)” the figure was 0%; with “ISIS 23345: phosphorothioate oligodeoxynucleotide aggtggatgcacttctga, 5′ UTR target site 858 (antisense dA*dG*dG*dT*dG*dG*dA*dT*dG*dC*dA*dC*dT*dT*dC*dT*dG*dA)”, 0%.
With “ISIS 23369: phosphorothioate oligodeoxynucleotide atatagttcaccaaacat, 3′ UTR target site 3222 (antisense dA*dT*dA*dT*dA*dG*dT*dT*dC*dA*dC*dC*dA*dA*dA*dC*dA*dT)”, the “% Inhibition” value is 0%.
As for “ISIS 23349: phosphorothioate oligodeoxynucleotide acctgggaaaagtctttg, Coding target site 1178 (antisense dA*dC*dC*dT*dG*dG*dG*dA*dA*dA*dA*dG*dT*dC*dT*dT*dT*dG)”, the “% Inhibition” value worked out at 0%.
With “ISIS 23360: phosphorothioate oligodeoxynucleotide ttcccaacacctcaagcc, Coding target site 2093 (antisense dT*dT*dC*dC*dC*dA*dA*dC*dA*dC*dC*dT*dC*dA*dA*dG*dC*dC)”, the “% Inhibition” value worked out at 55% and the “inhibition of Cellular Inhibitor of Apoptosis-1 expression” value (“inhibition … of Apoptosis-1 expression” below) is reported as “at least 20%”.
In the case of “ISIS 23364: phosphorothioate oligodeoxynucleotide catttcttcagcttgttt, Coding target site 2501 (antisense dC*dA*dT*dT*dT*dC*dT*dT*dC*dA*dG*dC*dT*dT*dG*dT*dT*dT)”, the “% Inhibition” value is 0%.
On to “ISIS 23355: phosphorothioate oligodeoxynucleotide gagtaagaaccactgaac, Coding target site 1603 (antisense dG*dA*dG*dT*dA*dA*dG*dA*dA*dC*dC*dA*dC*dT*dG*dA*dA*dC)”, for which the “% Inhibition” value was found to be 0%.
Turning to “ISIS 23336: phosphorothioate oligodeoxynucleotide ttagttagccataaaatt, 5′ UTR target site 287 (antisense dT*dT*dA*dG*dT*dT*dA*dG*dC*dC*dA*dT*dA*dA*dA*dA*dT*dT)”, the “% Inhibition” value came out at 0%.
On to “ISIS 23347: phosphorothioate oligodeoxynucleotide tcaggtaggatgagtatc, 5′ UTR target site 994 (antisense dT*dC*dA*dG*dG*dT*dA*dG*dG*dA*dT*dG*dA*dG*dT*dA*dT*dC)”, for which the “% Inhibition” value worked out at 11%.
As to “ISIS 23342: phosphorothioate oligodeoxynucleotide tatatgcaggcttctttc, 5′ UTR target site 684 (antisense dT*dA*dT*dA*dT*dG*dC*dA*dG*dG*dC*dT*dT*dC*dT*dT*dT*dC)”, the “% Inhibition” value is reported as 23% and the “inhibition … of Apoptosis-1 expression” value was “at least 20%”.
Consider “ISIS 23353: phosphorothioate oligodeoxynucleotide tttctcattggagacgta, Coding target site 1540 (antisense dT*dT*dT*dC*dT*dC*dA*dT*dT*dG*dG*dA*dG*dA*dC*dG*dT*dA)”, for which the “% Inhibition” value was 32% and the “inhibition … of Apoptosis-1 expression” value is on record as “at least 20%”.
On the same counts, the results for “ISIS 23333: phosphorothioate oligodeoxynucleotide aatcaactctactagcct, 5′ UTR target site 68 (antisense dA*dA*dT*dC*dA*dA*dC*dT*dC*dT*dA*dC*dT*dA*dG*dC*dC*dT)” are 47% and “at least 20%”.
For the substance “ISIS 23368: phosphorothioate oligodeoxynucleotide ttagatggcttcaagtgt, 3′ UTR target site 3071 (antisense dT*dT*dA*dG*dA*dT*dG*dG*dC*dT*dT*dC*dA*dA*dG*dT*dG*dT)”, the “% Inhibition” value worked out at 10%.
Turning to “ISIS 23351: phosphorothioate oligodeoxynucleotide tagagttcacaggaaaag, Coding target site 1285 (antisense dT*dA*dG*dA*dG*dT*dT*dC*dA*dC*dA*dG*dG*dA*dA*dA*dA*dG)”, the “% Inhibition” value was 0%.
With “ISIS 23358: phosphorothioate oligodeoxynucleotide ttcccagttactgagctt, Coding target site 1835 (antisense dT*dT*dC*dC*dC*dA*dG*dT*dT*dA*dC*dT*dG*dA*dG*dC*dT*dT)”, the “% Inhibition” value was determined as 78% and the “inhibition … of Apoptosis-1 expression” value is on record as “at least 20%”.
With “ISIS 23341: phosphorothioate oligodeoxynucleotide aagcactttaacatgaca, 5′ UTR target site 661 (antisense dA*dA*dG*dC*dA*dC*dT*dT*dT*dA*dA*dC*dA*dT*dG*dA*dC*dA)”, the “% Inhibition” value is 15%.
Still for that read-out and setting: with “ISIS 23365: phosphorothioate oligodeoxynucleotide tcgcttgtaaaggtatct, Coding target site 2661 (antisense dT*dC*dG*dC*dT*dT*dG*dT*dA*dA*dA*dG*dG*dT*dA*dT*dC*dT)” the figure was 0%.
Take “ISIS 23337: phosphorothioate oligodeoxynucleotide actttcttcctaactttg, 5′ UTR target site 352 (antisense dA*dC*dT*dT*dT*dC*dT*dT*dC*dC*dT*dA*dA*dC*dT*dT*dT*dG)”: the “% Inhibition” value worked out at 0%.
On to “ISIS 23350: phosphorothioate oligodeoxynucleotide caatctgacaagatcgtg, Coding target site 1234 (antisense dC*dA*dA*dT*dC*dT*dG*dA*dC*dA*dA*dG*dA*dT*dC*dG*dT*dG)”, for which the “% Inhibition” value is on record as 0%.
Regarding “ISIS 23332: phosphorothioate oligodeoxynucleotide aaattacactccatagaa, 5′ UTR target site 4 (antisense dA*dA*dA*dT*dT*dA*dC*dA*dC*dT*dC*dC*dA*dT*dA*dG*dA*dA)”, the “% Inhibition” value worked out at 0%.
“ISIS 23371: phosphorothioate oligodeoxynucleotide agtgaaaagcaccaaaga, 3′ UTR target site 3407 (antisense dA*dG*dT*dG*dA*dA*dA*dA*dG*dC*dA*dC*dC*dA*dA*dA*dG*dA)”: the “% Inhibition” value is given as 0%.
On the same count and under the same terms, the value for “ISIS 23366: phosphorothioate oligodeoxynucleotide attcttatccacaaataa, Coding target site 2774 (antisense dA*dT*dT*dC*dT*dT*dA*dT*dC*dC*dA*dC*dA*dA*dA*dT*dA*dA)” was 0%; that for “ISIS 23357: phosphorothioate oligodeoxynucleotide tggtaggtaagaaatctg, Coding target site 1717 (antisense dT*dG*dG*dT*dA*dG*dG*dT*dA*dA*dG*dA*dA*dA*dT*dC*dT*dG)” was 0%.
Turning to “ISIS 23370: phosphorothioate oligodeoxynucleotide ttcctggtttccagttct, 3′ UTR target site 3355 (antisense dT*dT*dC*dC*dT*dG*dG*dT*dT*dT*dC*dC*dA*dG*dT*dT*dC*dT)”, the “% Inhibition” value was 46% and the “inhibition … of Apoptosis-1 expression” value was “at least 20%”.
In the case of “ISIS 23359: phosphorothioate oligodeoxynucleotide ctcagatttgaaatgcta, Coding target site 1936 (antisense dC*dT*dC*dA*dG*dA*dT*dT*dT*dG*dA*dA*dA*dT*dG*dC*dT*dA)”, the “% Inhibition” value amounted to 0%.
For the substance “ISIS 23340: phosphorothioate oligodeoxynucleotide aaaagctaagttcacaca, 5′ UTR target site 576 (antisense dA*dA*dA*dA*dG*dC*dT*dA*dA*dG*dT*dT*dC*dA*dC*dA*dC*dA)”, the “% Inhibition” value is 0%.
